# Data taken from patent US8569298B2, “Pyridine compounds” (Astrazeneca AB, priority 2008, dated 2013).
# Target: T1, FAK enzyme (6 His tagged kinase domain, GenBank NP—722560) (Homo sapiens, UniProt Q05397)
# T1 construct: 6 His; made in house; host or cells: insect cell culture infected with baculovirus
# Test: In vitro enzyme assay (a): sandwich ELISA of FAK tyrosine kinase activity on polyGAT peptide, TMB colorimetric endpoint
# Assay type: biochemical
# Conditions: in vitro Enzyme Assay test (a); ATP at Km; geometric mean of n > 1 measurements, values marked * tested once
# In short: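 Recombinant His-tagged FAK kinase domain (baculovirus/insect cells) phosphorylated plate-coated polyGAT with ATP at Km, MgCl2/MnCl2, HEPES pH 7.4, 25 min at room temperature before EDTA stop. Phosphotyrosine detected by HRP-4G10 antibody and TMB absorbance at 450 nm; IC50 from 12-point curve anchored to DMSO and staurosporine controls.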
# T1 sequence (Q05397 422-680 limits assumed): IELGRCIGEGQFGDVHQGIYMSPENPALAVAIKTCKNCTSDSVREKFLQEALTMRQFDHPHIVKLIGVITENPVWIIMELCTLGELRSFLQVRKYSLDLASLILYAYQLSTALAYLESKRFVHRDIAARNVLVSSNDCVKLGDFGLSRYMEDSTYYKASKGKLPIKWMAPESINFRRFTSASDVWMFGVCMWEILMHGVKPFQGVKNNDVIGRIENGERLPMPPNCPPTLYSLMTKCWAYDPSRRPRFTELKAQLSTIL
row,SMILES,IC50 [nM]
1,"CN1CCc2cccc(Nc3cc(Nc4cnn(C5CCNCC5)c4)ncc3Cl)c2C1=O [Example 3.33, 8-[[5-Chloro-2-[[1-(4-piperidyl)pyrazol-4-yl]amino]-4-pyridyl]amino]-2-methyl-3,4-dihydroisoquinolin-1-one]",191
2,"CNC(=O)c1ccccc1Nc1cc(Nc2cnn(C3CCN(C(C)=O)CC3)c2)ncc1Cl [Example 3.13, 2-[(2-[[1-(1-acetyl-4-piperidyl)pyrazol-4-yl]amino]-5-chloro-4-pyridyl]amino]-N-methyl-benzamide]",128
3,"CONC(=O)c1ccccc1Nc1cc(Nc2cn(C)nc2C)ncc1Cl [Example 3.01, 2-[[5-Chloro-2-[(1,3-dimethylpyrazol-4-yl)amino]-4-pyridyl]amino]-N-methoxy-benzamide]",44
4,"CNC(=O)c1ccccc1Nc1cc(Nc2cn(C)nc2C)ncc1Cl [Example 3.14, 2-[[5-chloro-2-[(1,3-dimethylpyrazol-4-yl)amino]-4-pyridyl]amino]-N-methyl-benzamide]",45
5,"CNC(=O)c1ccccc1Nc1cc(Nc2cc(C)n(C)n2)ncc1Cl [Example 3.10, 2-[[5-chloro-2-[(1,5-dimethylpyrazol-3-yl)amino]-4-pyridyl]amino]-N-methyl-benzamide]",45
6,"COCCNC(=O)Cn1cc(Nc2cc(Nc3cccc4c3C(=O)N(C)CC4)c(Cl)cn2)cn1 [Example 3.24, 2-[4-[[5-chloro-4-[(2-methyl-1-oxo-3,4-dihydroisoquinolin-8-yl)amino]-2-pyridyl]amino]pyrazol-1-yl]-N-(2-methoxyethyl)acetamide]",18
7,"Cc1nn(C)cc1Nc1cc(Nc2cccc3c2C(=O)N(C)CC3)c(C#N)cn1 [Example 1.08, 6-[(1,3-dimethylpyrazol-4-yl)amino]-4-[(2-methyl-1-oxo-3,4-dihydroisoquinolin-8-yl)amino]pyridine-3-carbonitrile]",6
8,"CNC(=O)c1cc(N2CCN(C)CC2)ccc1Nc1cc(Nc2cc(C)n(C)n2)ncc1Cl [Example 3.36, 2-[[5-Chloro-2-[(1,5-dimethylpyrazol-3-yl)amino]-4-pyridyl]amino]-N-methyl-5-(4-methylpiperazin-1-yl)benzamide]",249

# Second part, the molecule after the results:
row,IC50 [nM],SMILES
1,18,"CNC(=O)c1ccccc1Nc1cc(Nc2cn(C)nc2C(F)(F)F)ncc1C(F)(F)F [Example 8.12, N-methyl-2-[[2-[[1-methyl-3-(trifluoromethyl)pyrazol-4-yl]amino]-5-(trifluoromethyl)-4-pyridyl]amino]benzamide]"
2,11,"CNC(=O)c1cc(SC)ccc1Nc1cc(Nc2cn(C)nc2C)ncc1C(F)(F)F [Example 10.10, 2-[[2-[(1,3-dimethylpyrazol-4-yl)amino]-5-(trifluoromethyl)-4-pyridyl]amino]-N-methyl-5-methylsulfanyl-benzamide]"
3,9,"CN1CCc2cccc(Nc3cc(Nc4ccn(C)n4)ncc3Cl)c2C1=O [Example 6.07, 8-[[5-chloro-2-[(1-methylpyrazol-3-yl)amino]-4-pyridyl]amino]-2-methyl-3,4-dihydroisoquinolin-1-one]"
4,2080,"CNC(=O)c1ccccc1Nc1cc(Nc2cnn(C3CCN(C)CC3)c2)ncc1F [Example 4.11, 2-[[5-fluoro-2-[[1-(1-methyl-4-piperidyl)pyrazol-4-yl]amino]-4-pyridyl]amino]-N-methyl-benzamide]"
5,1360,"CN(C)C(=O)c1nn(C)cc1Nc1cc(Nc2cccc3c2C(=O)N(C)CC3)c(Cl)cn1 [Example 12.02, 4-[[5-chloro-4-[(2-methyl-1-oxo-3,4-dihydroisoquinolin-8-yl)amino]-2-pyridyl]amino]-N,N,1-trimethyl-pyrazole-3-carboxamide]"
